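Briefly, cells in 96-well plates were exposed to five compound concentrations for 48 h, and endpoints were estimated by linear interpolation. The concentration for full growth arrest is given as TGI.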
What was measured:
Test in all cases: NCI tumour cell line growth inhibition, 48 h
A549 NSCLC = test system: A549 NSCLC
OVCAR-5 ovarian = test system: OVCAR-5 ovarian
HOP-62 NSCLC = test system: HOP-62 NSCLC
NCI-H226 lung = test system: NCI-H226 lung
SK-MEL-28 melanoma = test system: SK-MEL-28 melanoma
HT29 colon = test system: HT29 colon
DMS 114 small cell lung = test system: DMS 114 small cell lung
U251 CNS = test system: U251 CNS
OVCAR-8 ovarian = test system: OVCAR-8 ovarian
NCI-H522 lung = test system: NCI-H522 lung
UO-31 renal = test system: UO-31 renal
DMS 273 small cell lung = test system: DMS 273 small cell lung
IGROV1 ovarian = test system: IGROV1 ovarian
EKVX NSCLC = test system: EKVX NSCLC
NCI-H23 lung = test system: NCI-H23 lung
NCI-H460 lung = test system: NCI-H460 lung
TK-10 renal = test system: TK-10 renal
KM12 colon = test system: KM12 colon
MOLT-4 leukemia = test system: MOLT-4 leukemia
HL-60(TB) leukemia = test system: HL-60(TB) leukemia
SR leukemia = test system: SR leukemia
HOP-92 NSCLC = test system: HOP-92 NSCLC
SNB-19 CNS = test system: SNB-19 CNS
SF-295 CNS = test system: SF-295 CNS
RXF 393 renal = test system: RXF 393 renal
CCRF-CEM leukemia = test system: CCRF-CEM leukemia
M14 melanoma = test system: M14 melanoma
UACC-257 melanoma = test system: UACC-257 melanoma
ACHN renal = test system: ACHN renal
SK-OV-3 ovarian = test system: SK-OV-3 ovarian
A498 renal = test system: A498 renal
HCT-116 colon = test system: HCT-116 colon
SNB-78 CNS = test system: SNB-78 CNS
RPMI-8226 leukemia = test system: RPMI-8226 leukemia
COLO 205 colon = test system: COLO 205 colon
CAKI-1 renal = test system: CAKI-1 renal
SF-268 CNS = test system: SF-268 CNS
MALME-3M melanoma = test system: MALME-3M melanoma
DLD-1 colon = test system: DLD-1 colon
OVCAR-3 ovarian = test system: OVCAR-3 ovarian
SNB-75 CNS = test system: SNB-75 CNS
HCT-15 colon = test system: HCT-15 colon
K-562 leukemia = test system: K-562 leukemia
LXFL 529 NSCLC = test system: LXFL 529 NSCLC
LOX IMVI melanoma = test system: LOX IMVI melanoma
SK-MEL-2 melanoma = test system: SK-MEL-2 melanoma
UACC-62 melanoma = test system: UACC-62 melanoma
SN12C renal = test system: SN12C renal
M19-MEL melanoma = test system: M19-MEL melanoma
SK-MEL-5 melanoma = test system: SK-MEL-5 melanoma
SW-620 colon = test system: SW-620 colon
OVCAR-4 ovarian = test system: OVCAR-4 ovarian
786-0 renal = test system: 786-0 renal
HCC-2998 colon = test system: HCC-2998 colon
SF-539 CNS = test system: SF-539 CNS

Measured: TGI

CCN(CC)CSc1nc2ccccc2[nH]1
not listed: RPMI-8226 leukemia | COLO 205 colon | CAKI-1 renal | SF-268 CNS | MALME-3M melanoma | DLD-1 colon | OVCAR-3 ovarian | SNB-75 CNS | HCT-15 colon | K-562 leukemia | LXFL 529 NSCLC | LOX IMVI melanoma | SK-MEL-2 melanoma | UACC-62 melanoma | SN12C renal | M19-MEL melanoma | SK-MEL-5 melanoma | SW-620 colon | OVCAR-4 ovarian | 786-0 renal | HCC-2998 colon | SF-539 CNS
> 100 µM: all other assays above

CCOC(=O)CC(NC(=O)c1[nH]cnc1/N=N/N(C)C)C(=O)OCC (stereo not given)
not listed: HOP-92 NSCLC | RXF 393 renal | SNB-78 CNS
> 100 µM: all other assays above

Source: PubChem BioAssay (NCI)
